Source: patent US6998479B1, “Derivatives of cyclodextrins” (priority 1998, dated 2006)

Assays:
[1] = Reaction of aminooxy-CD with 4-thiouracil followed by UV spectra; conditions: 1 mM 4-thiouracil, 0.1 M compound, 20° C., neutral pH (7.0), 1 mm path
Method: FIG. 1a. Time course of the UV spectra (optical path length 1 mm) of a reaction mixture containing 1 mM 4-thiouracil in 100 mM 4-aminooxy-2-butenyl-beta-cyclodextrin (I; see Example I.2) at pH 7.0. Incubation at 20° C. is indicated as hours.
FIG. 1b. Time course of the UV spectra (optical path length 1 mm) of a reaction mixture containing 1 mM 4-thiouracil and 100 mM 1-aminooxybutane at 20° C. at pH 7.00. Incubation time (hours) is indicated.
A 1 mM solution of 4-thiouracil (Lacheama, Brno, Czechoslovakia) was incubated at 20° C. within a 0.1 M solution of 4-aminooxy-2-butenyl-β-CD (I) at neutral pH. The UV-spectra were recorded at certain time intervals using cuvettes of 1 mm optical path length (FIG. 1a). This reaction was compared with the reaction of 4-thiouracil with 1-aminooxybutane under the same reaction conditions (FIG. 1b).

[2] = Reaction of aminooxy-CD with 6-mercaptopurine riboside followed by UV spectra; conditions: 1 mM 6-mercaptopurine riboside, 0.1 M compound, 20° C., pH 7.00, 1 mm path
Method: FIG. 2a. Time course of the UV spectra (optical path length 1 mm) of a reaction mixture containing 1 mM 6-mercaptopurineriboside with 100 mM 4-aminooxy-2-butenyl-beta-cyclodextrin (see Example I.2). Incubation time (hours) is indicated.
FIG. 2b. Time course of the UV spectra (optical path length b 1 mm) of a reaction mixture containing 1 mM 6-mercaptopurineriboside with 100 mM 1-aminooxybutane at pH 7.00. Incubation time (hours) is indicated.
A 1 mM solution of 6-mercaptopurine riboside (Sigma Chem. Co., USA) was incubated at 20° C. within 0.1 M of 4-aminooxy-2-butenyl-β-CD (I).

4-aminooxy-2-butenyl-beta-cyclodextrin
velocity of reaction with 4-thiouracil compared with 1-aminooxybutane [1]: significantly higher velocity of reaction | reaction rate with 6-mercaptopurine riboside compared with 1-aminooxybutane [2]: drastically higher reaction rates
